Literature values, collected in patent publication US20100297232A1, “ONDANSETRON FILM COMPOSITIONS” (MonoSol Rx, LLC, priority 2009, published 2010).
Like-named read-outs stand apart in the source and are kept apart here.

Cc1nccn1CC1CCc2c(c3ccccc3n2C)C1=O (centres unmarked) [ondansetron base, ondansetron]
solubility (pH 1.2 and below): soluble
solubility (pH 8): practically insoluble
